Results reported in patent US6054556A, “Melanocortin receptor antagonists and agonists” (The Arizona Board of Regents on Behalf of the University of …, priority 1997, dated 2000).
“Also recorded” adds a separate entry of the source. Where a SMILES comes first, the peptide text is derived from it. Bridges are numbered along the chain shown (N, C = ends). [ ]: non-standard residue; d: D form. 2Nal = N[C@@H](Cc1ccc2ccccc2c1)C(=O)O; d2Nal = N[C@H](Cc1ccc2ccccc2c1)C(=O)O; Nle = CCCC[C@H](N)C(=O)O

Experiments:
Type in all cases: cell-based
hMC3-R = molecular target: T1, hMC3-R (Homo sapiens, UniProt P41968); assay: cAMP-dependent pCRE/β-galactosidase reporter assay in Clonal 293 cells expressing human MC3-R; settings: for hMC3-R: agonist/antagonist activity: cAMP/β-galactosidase
T1 construct: expressed in transfected cells
Experimental: (§1) The peptides according to the present invention were assayed for agonist and antagonist activity using cloned hMC1, mMC1-R, hMC3-R, hMC4-R and mMC5-R transfected into the stable cell line Clonal 293. Transduction was measured by its affect on cAMP production using the following method.
(§2) Clonal 293 cell lines expressing the human MSH receptor, human MC3-R, human MC4-R, and mouse MC5-R were transfected with a pCRE/β-galactosidase construct using a CaPO4 method [see Mol. Cell. Biol. 7:2745 (1987)]. 4 μg of pCRE/β-galactosidase DNA was used for transfection of a 10 cm dish of cells. After 15 to 24 hours post-transfection, cells were split into 96-well plates with 20,000 to 30,000 cells per well, and incubated at 37° C. in a 5% CO2 incubator until 48 hours post-transfection.Cells were then stimulated with different peptides diluted in stimulation medium (Dulbecco's modified Eagle's medium containing 0.1 mg/ml bovine serum albumin and 0.1 mM isobutylmethylxanthine) for 6 hours. Agonist activity was measured by stimulating cells with various concentrations of peptide, and antagonist activity was measured by stimulating MC3 and MC4 receptor cell lines with […]. After stimulation, cells were lysed in 50 μl lysis buffer (250 mM Tris-HCl, pH 8.0, 0.1% Triton X-100), frozen and thawed, and then assayed for b-galactosidase activity.

mMC5-R = molecular target: T2, mMC5-R (Mus musculus, UniProt P41149); assay: cAMP-dependent pCRE/β-galactosidase reporter assay in Clonal 293 cells expressing mouse MC5-R; settings: for mMC5-R: agonist/antagonist activity: cAMP/β-galactosidase
T2 construct: expressed in transfected cells
Experimental: Transduction was measured by its affect on cAMP production using the following method.
as §2, with “4” for “Clonal 293 cell lines expressing the human MSH receptor, human MC3-R, human MC4-R, and mouse MC5-R were transfected with a pCRE/β-galactosidase construct using a CaPO4 method [see Mol. Cell. Biol. 7:2745 (1987)]. 4”

frog (Rana pipiens) skin = assay: Frog skin bioassay (skin darkening, photoreflectance); settings: for Frog Skin: agonist/antagonist activity: melanin dispersion vs α-MSH
Experimental: Bioassays were performed on frog (Rana pipiens) skin according to published protocols [see J. Med. Chem. 30:2126 (1987) and Gen. Comp. Endocrinol. 55:104 (1984)]. Briefly, in these assays the darkening of skin due to dispersion of melanin granules within the melanocytes in response to the melanotropin peptides according to the present invention is measured by photoreflectance methods. The agonist potency of each peptide was determined from the dose response curves comparing the skin darkening with that produced by the native hormone, α-MSH. Prolongation of the biological response was measured by continued monitoring of the melanosome dispersion for up to 3 hours following removal of the peptide in the bathing solution through washing of the skins. The antagonistic activity profile was measured by pre-incubating the skins for 1 hour in various concentrations of the antagonist. After pre-incubation, a known concentration of α-MSH was added and its melanotropic activity determined. Dose-response curves generated for α-MSH in this manner were used to determine the pA2 values (representing the -log10 of the average molar concentration of the antagonist that will reduce the response of α-MSH (agonist) from 2X units to X units) [see Br. J. Pharmacol. 2:189 (1947)].

hMC4-R = molecular target: T3, hMC4-R (Homo sapiens, UniProt P32245); assay: cAMP-dependent pCRE/β-galactosidase reporter assay in Clonal 293 cells expressing human MC4-R; settings: for hMC4-R: agonist/antagonist activity: cAMP/β-galactosidase
T3 construct: expressed in transfected cells
Experimental: as §1, §2

T3 sequence (P32245 whole entry): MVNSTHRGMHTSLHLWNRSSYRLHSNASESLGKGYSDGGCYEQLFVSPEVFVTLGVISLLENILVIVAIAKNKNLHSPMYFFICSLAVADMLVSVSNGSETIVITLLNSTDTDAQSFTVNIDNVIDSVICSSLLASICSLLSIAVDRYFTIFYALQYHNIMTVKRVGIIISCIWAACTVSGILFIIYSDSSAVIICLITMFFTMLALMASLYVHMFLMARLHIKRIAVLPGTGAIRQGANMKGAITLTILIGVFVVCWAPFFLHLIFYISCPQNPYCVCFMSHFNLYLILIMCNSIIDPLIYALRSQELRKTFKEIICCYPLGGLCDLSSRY
T2 sequence (P41149 whole entry): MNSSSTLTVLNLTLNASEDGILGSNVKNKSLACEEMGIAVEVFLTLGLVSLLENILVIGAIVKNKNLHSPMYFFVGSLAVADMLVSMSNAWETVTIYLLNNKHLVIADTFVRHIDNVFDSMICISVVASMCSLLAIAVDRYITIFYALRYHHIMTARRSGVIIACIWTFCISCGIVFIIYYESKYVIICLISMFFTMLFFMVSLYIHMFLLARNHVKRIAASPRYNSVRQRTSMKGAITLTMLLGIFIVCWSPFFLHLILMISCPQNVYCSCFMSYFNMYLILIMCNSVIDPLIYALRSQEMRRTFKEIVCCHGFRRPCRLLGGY
T1 sequence (P41968 whole entry): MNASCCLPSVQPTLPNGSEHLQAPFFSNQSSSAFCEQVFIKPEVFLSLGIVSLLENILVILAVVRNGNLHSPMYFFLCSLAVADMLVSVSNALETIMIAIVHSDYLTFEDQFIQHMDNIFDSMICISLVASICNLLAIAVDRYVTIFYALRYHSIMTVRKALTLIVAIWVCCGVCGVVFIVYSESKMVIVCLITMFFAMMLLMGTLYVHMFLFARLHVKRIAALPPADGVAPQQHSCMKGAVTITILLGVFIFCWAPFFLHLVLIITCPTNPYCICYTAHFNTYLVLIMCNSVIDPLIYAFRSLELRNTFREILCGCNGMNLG

Compound | hMC3-R: potency range (hMC3-R) | hMC3-R: agonist/antagonist activity (hMC3-R) | mMC5-R: potency range (mMC5-R) | mMC5-R: agonist/antagonist activity (mMC5-R) | Frog Skin: reversibility of antagonism (frog (Rana pipiens) skin) | Frog Skin: agonist/antagonist activity (frog (Rana pipiens) skin) | hMC4-R: potency range (hMC4-R) | hMC4-R: agonist/antagonist activity (hMC4-R)
Ac-Nle-c[Asp-His(3-Me)-D-Nal(2')-Arg-Nal(2')-Lys]-NH2 [Compound 6] | nM range | Antagonist | pM range | Antagonist | Irreversible | Antagonist | nM range | Antagonist
Ac-Nle-c[Asp-His(1-Me)-D-Nal(2')-Arg-Trp-Lys]-NH2 [Compound 2] | nM range | Antagonist | pM range | Antagonist | Irreversible | Antagonist | nM range | Antagonist
CCCC[C@H](NC(C)=O)C(=O)N[C@H]1CC(=O)NCCCC[C@@H](C(N)=O)NC(=O)[C@H](Cc2ccc3ccccc3c2)NC(=O)[C@H](CCCNC(=N)N)NC(=O)[C@@H](Cc2ccc3ccccc3c2)NC(=O)[C@H](Cc2c[nH]cn2)NC1=O [Compound 11, Ac-Nle-c[Asp-His-D-Nal(2')-Arg-Nal(2')-Lys]-NH2] | – | – | – | – | – | Antagonist -- Partial | – | –
CCCC[C@H](NC(C)=O)C(=O)N[C@H]1CC(=O)NCCCC[C@@H](C(N)=O)NC(=O)[C@H](Cc2c[nH]c3ccccc23)NC(=O)[C@H](CCCC)NC(=O)[C@@H](Cc2ccc3ccccc3c2)NC(=O)[C@H](Cc2c[nH]c3ccccc23)NC1=O [Compound 14, Ac-Nle-c[Asp-Trp-D-Nal(2')-Nle-Trp-Lys]-NH2] (Ac-[Nle]DW[d2Nal][Nle]WK-NH2; lactam 2-7) | – | – | – | – | – | Antagonist | – | –
CCCC[C@H](NC(C)=O)C(=O)N[C@H]1CC(=O)NCCCC[C@@H](C(N)=O)NC(=O)[C@H](Cc2ccc3ccccc3c2)NC(=O)[C@H](CCCNC(=N)N)NC(=O)[C@@H](Cc2ccccc2)NC(=O)[C@H](Cc2c[nH]c3ccccc23)NC1=O [Compound 10, Ac-Nle-c[Asp-Trp-D-Phe-Arg-Nal(2')-Lys]-NH2] (Ac-[Nle]DW[dF]R[2Nal]K-NH2; lactam 2-7) | – | – | – | – | – | potent agonist; also recorded: Full Agonist | – | –
CCCC[C@H](NC(C)=O)C(=O)N[C@H]1CC(=O)NCCCC[C@@H](C(N)=O)NC(=O)[C@H](Cc2c[nH]c3ccccc23)NC(=O)[C@H](Cc2ccc3ccccc3c2)NC(=O)[C@@H](Cc2ccccc2)NC(=O)[C@H](Cc2c[nH]cn2)NC1=O [Compound 15, Ac-Nle-c[Asp-His-D-Phe-Nal(2')-Trp-Lys]-NH2] | – | – | – | – | – | Agonism | – | –
CCCC[C@H](NC(C)=O)C(=O)N[C@H]1CC(=O)NCCCC[C@@H](C(N)=O)NC(=O)[C@@H](Cc2ccc3ccccc3c2)NC(=O)[C@H](CCCNC(=N)N)NC(=O)[C@@H](Cc2ccc3ccccc3c2)NC(=O)[C@H](Cc2c[nH]cn2)NC1=O [Compound 16, Ac-Nle-c[Asp-His-D-Nal(2')-Arg-D-Nal(2')-Lys]-NH2] | – | – | – | – | – | Agonism | – | –
CCCC[C@H](NC(C)=O)C(=O)N[C@H]1CC(=O)NCCCC[C@@H](C(N)=O)NC(=O)[C@H](Cc2c[nH]c3ccccc23)NC(=O)[C@H](CCCC)NC(=O)[C@@H](Cc2ccc3ccccc3c2)NC(=O)[C@H](Cc2c[nH]cn2)NC1=O [Compound 13, Ac-Nle-c[Asp-His-D-Nal(2')-Nle-Trp-Lys]-NH2] | – | – | – | – | – | Agonist | – | –
CCCC[C@H](NC(C)=O)C(=O)N[C@H]1CC(=O)NCCCC[C@@H](C(N)=O)NC(=O)[C@H](Cc2ccc3ccccc3c2)NC(=O)[C@H](CCCNC(=N)N)NC(=O)[C@@H](Cc2ccc3ccccc3c2)NC(=O)[C@H](Cc2c[nH]c3ccccc23)NC1=O [Compound 1, Ac-Nle-c[Asp-Trp-D-Nal(2')-Arg-Nal(2')-Lys]-NH2] (Ac-[Nle]DW[d2Nal]R[2Nal]K-NH2; lactam 2-7) | – | – | – | – | Irreversible | Antagonist | – | –
Ac-Nle-c[Asp-His(3-Me)-D-Nal(2')-Arg-Trp-Lys]-NH2 [Compound 3] | nM range | Antagonist | pM range | Antagonist | Irreversible | Antagonist | nM range | Antagonist
Ac-Nle-c[Asp-His(1-Me)-D-Nal(2')-Arg-Nal(2')-Lys]-NH2 [Compound 5] | nM range | Antagonist | pM range | Antagonist | Irreversible | Antagonist | nM range | Antagonist
